{"source": "patent US20260174780A1", "about": "“BISMUTH-THIOL COMPOSITIONS AND METHODS FOR TREATING INFLAMMATORY DISEASES” (Microbion Corporation, priority 2022, published 2026)", "key": {"AIM2 inflammasome [1]": {"test_system": "AIM2 inflammasome", "assay": "qPCR of AIM2 in HUVEC cells", "type": "cell-based, human", "conditions": "HUVEC cells, 0.5, 1, 2 or 4 μg/mL, 24 hours, compared to untreated cells", "protocol": "(§1) Protocol: HUVEC cells were grown in tissue culture flasks and a 24-well plate was seeded with 2×10^5 cells/well and incubated at 37° C. and 5% CO2 for 48 hours. Select wells were treated with either 4 μg/mL, 2 μg/mL, 1 μg/mL, or 0.5 μg/mL BisEDT or left untreated as a control and incubated at 37° C. and 5% CO2 for 24 hours. Cell culture supernatant was collected from each well and stored at −20° C. until further ELISA analysis. On the day of the ELISA assays to determine the expression of each cytokine, cell culture supernatant was thawed, and the assays performed following the manufacturer's instructions. Cells were collected for RNA isolation using Qiagen RNeasy kit using manufacturer's instructions. Briefly, genomic DNA was degraded with DNase (Roche) and samples were incubated at 37° C. for 1 hour followed by 3 μL DNase inactivation reagent (Invitrogen) incubated at 37° C. for 2 minutes. Samples were centrifuged at maximum speed for 5 minutes to remove the inactivation reagent. RNA concentration and quality was evaluated using a Nanodrop. RNA samples were utilized to generate cDNA using cDNA synthesis kit (Bio-Rad). qPCR for AIM2 and actin (housekeeping gene) was conducted using SYBR green kit (Bio-Rad) along with standard."}, "AIM2 inflammasome [2]": {"test_system": "AIM2 inflammasome", "assay": "qPCR of AIM2 in BEAS-2B cells", "type": "cell-based, human", "conditions": "0.5-4 μg/mL, 24 hours", "protocol": "as §1, with “Protocol: BEAS-2B” for “Protocol: HUVEC”, “using manufacturers'” for “using manufacturer's”, “with standards.” for “with standard.”"}, "neutrophils": {"test_system": "neutrophils", "assay": "In vitro model of neutrophil recruitment to the lung (transmigration, supernatant and conditioned media cytokines)", "type": "cell-based, human", "conditions": "for viability of the cells: CF-conditioned media and normal media (LTB4); for neutrophil transmigration / recruitment: CF-conditioned media and LTB4", "excerpt": "FIG. 6 provides a description of the assay for in vitro modeling of neutrophil recruitment to the lung.\nFIG. 7 provides a summary of the process for comparing cellular and soluble inflammatory markers in vitro.\nThe neutrophils used are primary cells harvested from normal healthy volunteers immediately prior to the study. Cellular and soluble inflammatory markers were compared in vitro as described in FIG. 7."}, "[3]": {"test_system": "M. abscessus clinical strains", "assay": "Activity in the macrophage system against M. abscessus clinical strains", "type": "cell-based", "conditions": "all three clinical strains tested"}, "[4]": {"test_system": "lung tissue of M. abscessus infected mice", "assay": "Lung histopathology in chronic M. abscessus infection study", "type": "in vivo, SCID/Beige mice", "protocol": "After 28 days of treatment with BisEDT, animals were euthanized by CO2 and secondary cardiac puncture to collect whole blood for quantitation of BisEDT concentration. Lungs and spleens from the CFU mice were homogenized with 1:1 H2O:Dey-Englev neutralizing broth to deactivate BisEDT. CFUs were determined after serial dilution. Mice for histology and the lung pair split, one half in formalin the other half weighed and snap frozen in liquid N2 to determine tissue concentration of BisEDT.\nSamples for histology were processed by the Veterinary Diagnostic Laboratory. Slides were stained with hematoxylin-eosin (HE stain) for general pathology as well as a slide for acid-fast stain to highlight the mycobacterial infection in lung tissue."}, "[5]": {"test_system": "FITC-induced contact hypersensitivity", "assay": "FITC-induced contact hypersensitivity in mice (ear swelling, histopathology, ear cytokines)", "type": "in vivo, BALB/c mice", "protocol": "Protocol: Male BALB/c mice at 8 weeks old are used in the study.\nAll animals, except those in Group 1 (Sham), were sensitized topically (TOP) on the shaved abdominal skin with 200 μL of 0.5% Fluorescein Isothiocyanate (FITC) dissolved in 20% tributyrin in acetone on Days 1 and 2. On Day 7, animals were challenged by applying 20 μL of 0.5% FITC solution onto both sides of the right ear. Animals in Group 1 received nothing.\nVehicle, BisEDT test articles and reference compound (tacrolimus) were administered topically (TOP) once daily (QD) from Day 6 to Day 9 for 4 consecutive days (1 hour before FITC challenge on Day 7). The vehicle for BisEDT was phosphate-buffered saline (PBS).\n• 2.5 mg/mL BisEDT topical suspension • 1.25 mg/mL BisEDT topical suspension—prepared as a 1:1 dilution of 2.5 mg/mL BisEDT topical suspension in sterile water and vortexed to ensure homogeneity\nAnalysis: Ear swelling was measured by an experimenter blinded to treatment group, with a dial thickness micrometer gauge as an index of inflammation 30 min before dosing on Days 7, 8, 9 and 10. On Day 10, ear swelling was measured at 24 hours after the last dosing. Ear edema was calculated by subtracting the thickness of Day 7 (normal control) from Day n (treated ear). Percentage inhibition was calculated according to the formula: (Ic−It)/Ic×100, where Ic and It refer to the increase of ear thickness (mm) both in the control and treated animals. Body weight was recorded daily during the study period.\nThe animals were sacrificed on Day 10 and the ears were then harvested and weighed. Half of the right ear was fixed in 10% formalin for histopathology, and the other half was processed for cytokine measurement (IL-18, IL-6, and IL-10) using ThermoFisher Mouse ProcartaPlex Kit by Luminex."}, "HUVEC cells": {"test_system": "HUVEC cells", "assay": "Cytokine ELISA in HUVEC cells", "type": "cell-based, human", "conditions": "0.5, 1, 2 or 4 μg/mL, 24 hours, compared to untreated cells", "protocol": "as §1"}, "[6]": {"conditions": "topical, compared to vehicle control"}}, "note": "Entries after “also recorded” stand apart in the source; their conditions may differ. Read-outs that look alike come from different tables or passages of the source."}
{"smiles": "C1C[S][Bi]([S]CC[S][Bi]2[S]CC[S]2)[S]1", "note": "[BisEDT, 1,2-(Bis(1,3-dithia-2-bismolane)thio)ethane]", "values": [{"measurement": "AIM2 inflammasome expression (AIM2/Actin copy number)", "setting": "AIM2 inflammasome [1]", "result": "inhibit AIM2 inflammasome expression"}, {"measurement": "AIM2 inflammasome expression (AIM2/Actin copy number)", "setting": "AIM2 inflammasome [2]", "result": "inhibit AIM2 inflammasome expression"}, {"measurement": "activity of caspase-1 (FLICA)", "setting": "neutrophils", "result": "slightly reduced"}, {"measurement": "IL-18 level in transmigration supernatant", "setting": "neutrophils; 6 hours, compared to vehicle", "result": "appreciably lower level"}, {"measurement": "viability of the cells", "setting": "neutrophils", "result": "very high level of viability"}, {"measurement": "viability of the cells", "setting": "neutrophils; listed as pravibismane", "result": "no effect on cell viability"}, {"measurement": "IL-18 in conditioned media", "setting": "neutrophils; compared to vehicle", "result": "down-regulated"}, {"measurement": "neutrophil transmigration / recruitment", "setting": "neutrophils; compared to vehicle", "result": "lower level of neutrophil transmigration; also recorded: inhibits neutrophil recruitment"}, {"measurement": "neutrophil transmigration / recruitment", "setting": "neutrophils; compared to vehicle, listed as pravibismane", "result": "reduced transmigration efficiency"}, {"measurement": "IL-6 in conditioned media", "setting": "neutrophils; conditioned media", "result": "Very minor changes"}, {"measurement": "expression of VEGF", "setting": "neutrophils; conditioned media", "result": "small increase"}, {"measurement": "interferon-gamma in conditioned media", "setting": "neutrophils; conditioned media", "result": "Very minor changes"}, {"measurement": "activity of caspase-1 (FLICA)", "setting": "neutrophils; listed as pravibismane", "result": "slight reduction"}, {"measurement": "IL-10 secretion", "setting": "neutrophils; summary", "result": "substantially increased"}, {"measurement": "CCL4 (macrophage inflammatory protein)", "setting": "neutrophils; transmigration supernatant, 6-hour time point", "result": "reduced"}, {"measurement": "activity against M. abscessus in the macrophage system", "setting": "[3]", "result": "very active (bactericidal)"}, {"measurement": "inflammatory process caused by the test article in lung", "setting": "[4]; M. abscessus infected, BisEDT treated mice", "result": "no indication of an inflammatory process caused by the BisEDT"}, {"measurement": "lung histomorphologic observation", "setting": "[4]; high-dose (1000 μg/kg/day), FIG. 5D", "result": "the inflammatory response was receding and clear airways were observed"}, {"measurement": "lung histomorphologic observation", "setting": "[4]; low-dose (200 μg/kg/day), FIG. 5C", "result": "decrease of inflammatory infiltrate compared to untreated control and a decrease in hemorrhage"}, {"measurement": "overall effect in the FITC-induced contact hypersensitivity model", "setting": "[5]; mouse, in vivo", "result": "overall anti-inflammatory effect"}, {"measurement": "ear swelling", "setting": "[5]; topical QD x 4, 2.5 and 1.25 mg/mL, compared to vehicle control", "result": "statistically significant and dose-dependent reduction"}, {"measurement": "epidermal thickness", "setting": "[5]; [6]", "result": "significant reduction"}, {"measurement": "histopathological score", "setting": "[5]; [6]", "result": "significant reduction"}, {"measurement": "expression of IL-18", "setting": "HUVEC cells", "result": "Consistent reduction"}, {"measurement": "expression of TNF-α", "setting": "HUVEC cells", "result": "Consistent reduction"}]}
